Measured values: patent US20240350458A1, “14-3-3 PROTEIN MODULATORS AS ANTITUMOR AGENTS” (priority 2021, published 2024)
Where two headings read alike, the source gives them in different places.

Legend:
[1] = system: four human ATC cell lines; test: Cellular screening in four human ATC cell lines; format: cell-based
[2] = system: FRO; test: MTT assay, ATC cell line, fixed concentrations; format: cell-based; conditions: Homo sapiens, 48 h, read-out: % of proliferating cells; for viability at 0.02 µM: 20 nM; for viability at 0.1 µM: 100 nM; for viability at 20 µM: 20000 nM
Method: (§1) The compounds FC91, SB14, SB17, SB18, SB19, SB20, SB21 and FC85 were employed in a cellular screening at fixed concentration ranging from 20 nM to 20 μM.
(§2) Table 2: Four human thyroid cancer cell lines were incubated with FC91, SB14, SB17, SB18, SB19, SB20A, SB20b, SB21 and FC85 for 48 h at fixed concentration of 20,100 and 20000 nM and then assayed with MTT. Data are reported as % of proliferating cells.

[3] = system: SW1736; test: MTT assay, ATC cell line, fixed concentrations; format: cell-based; conditions: Homo sapiens, SW-1736, 48 h, read-out: % of proliferating cells; for viability at 0.02 µM: SW1736, 20 nM; for viability at 0.1 µM: SW1736, 100 nM; for viability at 20 µM: SW1736, 20000 nM
Method: as §1, §2

[4] = system: Nthory; test: MTT assay, ATC cell line, fixed concentrations; format: cell-based; conditions: Homo sapiens, 48 h, read-out: % of proliferating cells; for viability at 0.02 µM: 20 nM; for viability at 0.1 µM: 100 nM; for viability at 20 µM: 20000 nM
Method: as §1, §2

[5] = system: 8505c; test: MTT assay, ATC cell line, fixed concentrations; format: cell-based; conditions: Homo sapiens, 48 h, read-out: % of proliferating cells; for viability at 0.02 µM: 20 nM; for viability at 0.1 µM: 100 nM; for viability at 20 µM: 20000 nM
Method: as §1, §2

[6] = system: REC1; test: MTT proliferation assay, B-cell lymphoma cell line; format: cell-based; conditions: Homo sapiens; REC1, 72 h of drug incubation
Method: (§3) All the above compounds were tested in vitro for their anticancer activity against a panel of eight B-cell lymphoma cell lines by MTT proliferation assay. The tested cell lines belonging to mantle cell lymphoma (MCL: REC1, Z138), activated B-cell diffuse large B-cell lymphoma (ABC-DLBCL: R11, HBL1, U2932, TMD8), germinal center B-cell diffuse large B-cell lymphoma (GCB-DLBCL: SU-DHL-10, FARAGE) subtypes. In overall, MCL cell lines present Cyclin D1 overexpression, while ABC- and GCB-DLBCL's proliferation is BCR and BCL6/HDACs driven, respectively. At the RNA level, all tested lymphoma cell lines were characterized by an overexpression of 14-3-3 zeta as reported for B-cell lymphomas resistant to chemotherapeutic regimen.

[7] = system: RI1; test: MTT proliferation assay, B-cell lymphoma cell line; format: cell-based; conditions: Ri-1; RI1, 72 h of drug incubation
Method: as §3

[8] = system: U2932; test: MTT proliferation assay, B-cell lymphoma cell line; format: cell-based; conditions: Homo sapiens; U2932, 72 h of drug incubation
Method: as §3

[9] = system: Z138; test: MTT proliferation assay, B-cell lymphoma cell line; format: cell-based; conditions: Homo sapiens, Z-138; Z138, 72 h of drug incubation
Method: as §3

[10] = system: SUDHL10; test: MTT proliferation assay, B-cell lymphoma cell line; format: cell-based; conditions: Homo sapiens, SU-DHL10; SUDHL10, 72 h of drug incubation
Method: as §3

[11] = system: FARAGE; test: MTT proliferation assay, B-cell lymphoma cell line; format: cell-based; conditions: 72 h of drug incubation
Method: as §3

[12] = system: TMD8; test: MTT proliferation assay, B-cell lymphoma cell line; format: cell-based; conditions: Homo sapiens; TMD8, 72 h of drug incubation
Method: as §3

[13] = system: HBL1; test: MTT proliferation assay, B-cell lymphoma cell line; format: cell-based; conditions: HBL1, 72 h of drug incubation
Method: as §3

[14] = system: eight B-cell lymphoma cell lines; test: MTT proliferation assay, panel of eight B-cell lymphoma cell lines; format: cell-based; conditions: for activity in lymphoma cell lines: eight lymphoma cell lines; for IC50: B-cell, read-out: IC50 in all eight lymphoma cell lines
Method: as §3

[15] = system: glioblastoma cell; conditions: combined with temozolomide; cited from earlier work
[16] = Homo sapiens, in one (i.e. SB17) to four (i.e. SB20b) cell lines of anaplastic thyroid cancer, read-out: IC50 value in ATC cell lines
[17] = human ATC cell lines, read-out: IC50 values in ATC cell lines

IC50 [1, 16] [nM] | IC50 [6] [nM] | IC50 [7] [nM] | IC50 [8] [nM] | IC50 [9] [nM] | IC50 [10] [nM] | IC50 [11] [nM] | IC50 [12] [nM] | Compound | viability at 0.02 µM [2] [%] | viability at 0.1 µM [2] [%] | viability at 20 µM [2] [%] | viability at 0.02 µM [3] [%] | viability at 0.1 µM [3] [%] | viability at 20 µM [3] [%] | viability at 0.02 µM [4] [%] | viability at 0.1 µM [4] [%] | viability at 20 µM [4] [%] | viability at 0.02 µM [5] [%] | viability at 0.1 µM [5] [%] | viability at 20 µM [5] [%] | other results
100 to 20000 | – | – | – | – | – | – | – | Cc1ccc(S(=O)(=O)Nc2ccc3c(c2)/C(=C/c2ccn[nH]2)C(=O)N3)cc1 [SB17, (Z)—N-(3-((1H-pyrazol-5-yl)methylene)-2-oxoindolin-5-yl)-4-methylbenzenesulfonamide] | 80 | 113 | 55 | 81 | 99 | 63 | 89 | 73 | 48 | 90 | 119 | 59 | –
100 to 20000 | – | – | – | – | – | – | – | Cc1ccc(S(=O)(=O)Nc2ccc3c(c2)/C(=C/c2cn[nH]c2)C(=O)N3)cc1 [SB18, (E/Z)—N-(3-((1H-pyrazol-4-yl)methylene)-2-oxoindolin-5-yl)-4-methylbenzenesulfonamide] | 77 | 54 | 56 | 77 | 64 | 59 | 54 | 58 | 34 | 80 | 48 | 42 | IC50 [1, 17]: 100 to 200 nM
100 to 20000 | – | – | – | – | – | – | – | Cc1ccc(S(=O)(=O)Nc2ccc3c(c2)C(=C2c4ccccc4-c4ccccc42)C(=O)N3)cc1 [SB21, N-(3-(9H-fluoren-9-ylidene)-2-oxoindolin-5-yl)-4-methylbenzenesulfonamide] | 93 | 114 | 60 | 108 | 103 | 64 | 91 | 94 | 15 | 82 | 134 | 37 | –
100 to 20000 | – | – | – | – | – | – | – | Cc1ccc(S(=O)(=O)Nc2ccc3c(c2)C(=Cc2cccnc2N)C(=O)N3)cc1 [SB20, N-(3-((2-aminopyridin-3-yl)methylene)-2-oxoindolin-5-yl)-4-methylbenzenesulfonamide] | – | – | – | – | – | – | – | – | – | – | – | – | –
100 to 20000 | – | – | – | – | – | – | – | Cc1ccc(S(=O)(=O)Nc2ccc3c(c2)/C(=C/c2cnc(C)[nH]2)C(=O)N3)cc1 [SB14, (Z)-4-methyl-N-(3-((2-methyl-1H-imidazol-5-yl)methylene)-2-oxoindolin-5-yl)benzenesulfonamide] | 92 | 113 | 57 | 84 | 102 | 70 | 95 | 77 | 41 | 97 | 128 | 65 | –
100 to 20000 | – | – | – | – | – | – | – | Cc1ccc(S(=O)(=O)Nc2ccc3c(c2)/C(=C/c2ncc[nH]2)C(=O)N3)cc1 [SB19, (Z)—N-(3-((1H-imidazol-2-yl)methylene)-2-oxoindolin-5-yl)-4-methylbenzenesulfonamide] | 78 | 74 | 51 | 80 | 85 | 59 | 81 | 61 | 43 | 74 | 74 | 37 | IC50 [1, 17]: 100 to 200 nM

More lines, now with the values behind:

Compound | IC50 [1, 16] [nM] | IC50 [6] [nM] | IC50 [7] [nM] | IC50 [8] [nM] | IC50 [9] [nM] | IC50 [10] [nM] | IC50 [11] [nM] | IC50 [12] [nM] | viability at 0.02 µM [2] [%] | viability at 0.1 µM [2] [%] | viability at 20 µM [2] [%] | viability at 0.02 µM [3] [%] | viability at 0.1 µM [3] [%] | viability at 20 µM [3] [%] | viability at 0.02 µM [4] [%] | viability at 0.1 µM [4] [%] | viability at 20 µM [4] [%] | viability at 0.02 µM [5] [%] | viability at 0.1 µM [5] [%] | viability at 20 µM [5] [%] | other results
CS(=O)(=O)Nc1ccc2c(c1)/C(=C/c1cccs1)C(=O)N2 [FC96, reference compound] | – | 15000 | 20000 | > 20000 | > 20000 | > 20000 | > 20000 | > 20000 | – | – | – | – | – | – | – | – | – | – | – | – | IC50 [13]: > 20000 nM; activity in lymphoma cell lines [14]: almost inactive
CS(=O)(=O)Nc1ccc2c(c1)/C(=C/c1cnc[nH]1)C(=O)N2 [FC100, reference compound] | – | 16000 | 5500 | > 20000 | 8000 | 19000 | > 20000 | > 20000 | – | – | – | – | – | – | – | – | – | – | – | – | IC50 [13]: > 20000 nM; activity in lymphoma cell lines [14]: almost inactive
Cc1ccc(S(=O)(=O)Nc2ccc3c(c2)C(=Cc2nccn2C)C(=O)N3)cc1 (stereo in doubt) [FC91, N-{(3E)-3-[(1-methyl-1H-imidazol-2-yl)methylidene]-2-oxo-2,3-dihydro-1H-indol-5-yl}-4-methylbenzenesulfonamide] | – | 50 | 30 | 50 | 50 | 50 | 25 | 50 | 63 | 46 | 55 | 73 | 52 | 60 | 84 | 55 | 47 | 79 | 38 | 48 | IC50 [13]: 40 nM; IC50 [1, 17]: 100 to 200 nM; IC50 [14]: < 1000 nM; IC50 in eight different lymphoma cell lines ([14]; eight different lymphoma cell lines): nanomolar range
Cc1ccc(S(=O)(=O)Nc2ccc3c(c2)/C(=C/c2cnc[nH]2)C(=O)N3)cc1 [FC85, N-[(3Z)-3-(1H-imidazol-5-ylmethylidene)-2-oxo-2,3-dihydro-1H-indol-5-yl]-4-methylbenzenesulfonamide] | 100 to 20000 | 1000 | 500 | 500 | 500 | 600 | 500 | 600 | 75 | 98 | 42 | 90 | 67 | 56 | 78 | 83 | 38 | 80 | 99 | 36 | IC50 [13]: 600 nM; inhibition of glioblastoma cell viability, combination vs single treatment [15]: significant increase in inhibition; IC50 [14]: < 1000 nM
Cc1ccc(S(=O)(=O)Nc2ccc3c(c2)C(=Cc2cccnc2N)C(=O)N3)cc1 [SB20A, N-(3-((2-aminopyridin-3-yl)methylene)-2-oxoindolin-5-yl)-4-methylbenzenesulfonamide] | – | – | – | – | – | – | – | – | 85 | – | – | 82 | 89 | – | 99 | 77 | 63 | 78 | 99 | 35 | –
